Experiments:
[1] = Dynamic Vapour Sorption (DVS) hygroscopicity; type: physicochemical; conditions: 25° C., water, humidity change 0-95-0-95-0% RH; FIGS. 8 and 9
Protocol: 3. Dynamic Vapour Sorption, DVS
Instrument type: DVS advantage
The crude product N-((4,6-dimethyl-2-oxo-1,2-dihydropyridin-3 -yl)methyl)-5 -ethyl-6-(ethyl(tetrahydro-2 H-pyran-4-yl)amino)-2-(piperidin-1-ylmethyl)benzofuran-4-carboxamide (50 mg, 0.091 mmol) obtained in Comparative example 1 was added to a reaction flask, and methanol (100 μL) was added. The solution was stirred at 25° C. for five days, filtrated and dried under vacuum to obtain a white to pale yellow powder. The DSC spectrum is shown in FIG. 7, in which the onset melting temperature is about 205.45° C.

[2] = Long-term, accelerated stability of crystal forms B and D (XRPD); type: physicochemical; conditions: Day 20; for change of XRPD peaks / crystal form stability: spread flat in the air
Protocol: 2. X-ray Powder Diffraction, XRPD
Instrument type: BRUKER D8 Discover A25 X-ray powder diffractometer
Ray: monochromatic Cu—Kα ray (λ=1.5406 Å)
Scanning mode: θ/2,θ Scanning range: 10-48°
Voltage: 40 kV, Electric current: 40 mA
The sample of crystal form B was spread flat in the air to test sample stability under conditions of 25° C.-65% relative humidity (RH), and the sampling time was Day 20. The sample of crystal form D was spread flat in the air to test sample stability under conditions of 40° C.-75% RH and 25° C.-65% RH, and the sampling time was Day 20.

CCc1c(N(CC)C2CCOCC2)cc2oc(CN3CCCCC3)cc2c1C(=O)NCc1c(C)cc(C)[nH]c1=O [crystal form D, N-((4,6-dimethyl-2-oxo-1,2-dihydropyridin-3-yl)methyl)-5-ethyl-6-(ethyl(tetrahydro-2 H-pyran-4-yl)amino)-2-(piperidin-1-ylmethyl)benzofuran-4-carboxamide]
hygroscopicity (DVS diagrams) [1]: no obvious hygroscopicity | physical stability compared between crystal forms ([2]; 25° C.-65%RH): better than that of crystal form B | change of XRPD peaks / crystal form stability ([2]; 40° C.-75% RH): has not changed substantially

CCc1c(N(CC)C2CCOCC2)cc2oc(CN3CCCCC3)cc2c1C(=O)NCc1c(C)cc(C)[nH]c1=O [crystal form B, N-((4,6-dimethyl-2-oxo-1,2-dihydropyridin-3-yl)methyl)-5-ethyl-6-(ethyl(tetrahydro-2 H-pyran-4-yl)amino)-2-(piperidin-1-ylmethyl)benzofuran-4-carboxamide]
change of XRPD peaks / crystal form stability ([2]; 25° C.-65% RH): has changed significantly

— patent US11155537B2, “Crystal of benzofuran derivative free base and preparation method” (Jiangsu Hengrui Medicine Co., Ltd., priority 2017, dated 2021)
